Active and inactive are the calls of the source. No cut-off for these calls is given here. Where only a bound is given, the exact number is not on record here.

As usually defined, the IC50 is the point on the concentration scale where inhibition reaches its midpoint. The low end stands for higher potency, the high end for lower potency. What is called Cmax is the peak of the concentration-time curve. By AUC is commonly meant the area under the concentration-time curve, a measure of exposure. The low end stands for low exposure, the high end for high exposure. By half-life is commonly meant the time in which the quantity being followed falls by half. The low end stands for rapid decline, the high end for slow decline. The term clearance denotes the volume of plasma or blood freed of the substance per unit of time. Usually inhibition in vivo stands for the relative decrease from the control value, in per cent.

Series [1] addresses Vascular endothelial growth factor receptor 2 (Homo sapiens, UniProt P35968).
The target of series [2] is T1, Receptor-type tyrosine-protein kinase FLT3 (Homo sapiens, UniProt P36888).
T1 sequence (P36888 whole entry): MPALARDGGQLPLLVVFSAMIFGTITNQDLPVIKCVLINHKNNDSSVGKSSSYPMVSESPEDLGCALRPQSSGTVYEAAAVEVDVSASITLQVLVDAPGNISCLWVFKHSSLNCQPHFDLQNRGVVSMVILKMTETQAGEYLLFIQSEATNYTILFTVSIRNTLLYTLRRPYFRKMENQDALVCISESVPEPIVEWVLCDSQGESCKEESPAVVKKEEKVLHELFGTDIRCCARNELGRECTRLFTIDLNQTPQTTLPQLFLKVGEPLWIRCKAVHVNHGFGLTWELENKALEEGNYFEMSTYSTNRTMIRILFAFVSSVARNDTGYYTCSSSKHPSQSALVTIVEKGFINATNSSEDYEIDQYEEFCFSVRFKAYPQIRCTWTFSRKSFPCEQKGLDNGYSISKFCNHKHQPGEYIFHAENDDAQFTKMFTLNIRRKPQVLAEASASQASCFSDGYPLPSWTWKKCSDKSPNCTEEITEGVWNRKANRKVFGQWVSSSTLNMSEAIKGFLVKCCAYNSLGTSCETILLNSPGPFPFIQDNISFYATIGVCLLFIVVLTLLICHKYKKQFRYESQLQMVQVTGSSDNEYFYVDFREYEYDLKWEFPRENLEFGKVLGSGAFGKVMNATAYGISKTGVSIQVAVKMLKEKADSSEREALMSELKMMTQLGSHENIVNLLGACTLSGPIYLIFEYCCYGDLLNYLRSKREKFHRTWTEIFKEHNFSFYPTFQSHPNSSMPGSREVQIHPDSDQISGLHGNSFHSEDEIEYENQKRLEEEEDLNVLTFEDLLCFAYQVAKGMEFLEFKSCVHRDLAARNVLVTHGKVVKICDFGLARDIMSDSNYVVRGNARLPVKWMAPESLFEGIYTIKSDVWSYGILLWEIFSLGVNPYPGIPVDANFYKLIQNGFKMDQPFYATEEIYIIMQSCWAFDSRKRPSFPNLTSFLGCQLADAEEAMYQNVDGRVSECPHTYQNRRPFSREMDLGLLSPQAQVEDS
The series is described as follows: Inhibition of FLT3.

Series [3] in a line: Cmax in BALB/c mouse at 10 mg/kg, po. In kind it is ADME, organism-based. Set-up: dose 10 mg/kg, route oral. To be noted: in vivo.
Series [4] concerns Mus musculus. The series is described as follows: AUC in BALB/c mouse at 2 mg/kg, iv. The format is ADME, organism-based, Plasma. Further details: dose 2 mg/kg, route intravenous. Conditions: in vivo.
Series [5] has as its system Mus musculus. The series is described as follows: Toxicity in mouse assessed as body weight at 100 to 200 mg/kg, po after 24 days. The format is organism-based. Further details: dose 100-200 mg/kg, route oral. To be noted: in vivo, 576 h.
Series [6] is described as follows: Half life in rat at 2 mg/kg, iv. The format is ADME, organism-based. Set-up: dose 2 mg/kg, route intravenous. Conditions: in vivo.
A short description of series [7]: Half life in BALB/c mouse at 2 mg/kg, iv. Set-up: dose 2 mg/kg, route intravenous. The format is ADME, organism-based. To be noted: in vivo.
A short description of series [8]: Cmax in rat at 10 mg/kg, po. In kind it is ADME, organism-based. Conditions: in vivo. Further details: dose 10 mg/kg, route oral.
Series [9] in a line: Clearance in BALB/c mouse at 2 mg/kg, iv. In kind it is ADME, organism-based. Further details: dose 2 mg/kg, route intravenous. To be noted: in vivo.
The target of series [10] is Mast/stem cell growth factor receptor Kit (Homo sapiens, UniProt P10721). Kind of series: Inhibition of KIT.
Series [11] has as its target Vascular endothelial growth factor receptor 1 (Homo sapiens, UniProt P17948). The series is described as follows: Inhibition of FLT1.
Series [12] in a line: Volume of distribution at steady state in BALB/c mouse at 2 mg/kg, iv. The format is ADME, organism-based. Further details: dose 2 mg/kg, route intravenous. Conditions: in vivo, read-out: Vdss.
The nature of series [13]: Volume of distribution at steady state in rat at 2 mg/kg, iv. In kind it is ADME, organism-based. Set-up: dose 2 mg/kg, route intravenous. Conditions: in vivo, read-out: Vdss.
Series [14] has as its system Rattus norvegicus. Kind of series: Oral bioavailability in rat at 10 mg/kg. In kind it is ADME, organism-based. Conditions: in vivo.
A short description of series [15]: Cmax in BALB/c mouse at 2 mg/kg, iv. The format is ADME, organism-based. Further details: dose 2 mg/kg, route intravenous. Conditions: in vivo.
Series [16] can be described thus: Cmax in rat at 2 mg/kg, iv. The format is ADME, organism-based. Further details: dose 2 mg/kg, route intravenous. Conditions: in vivo.
Series [17] deals with A-375. Kind of series: Antitumor activity against human A375 cells xenografted mouse model assessed as growth inhibition at 100 mg/kg, po. In kind it is functional. (In general: Xenograft models place foreign cells or tissue in a host animal.)
For series [18], the system named is HCT-116. The series is described as follows: Antitumor activity against human HCT116 cells xenografted mouse model measured at 100 to 200 mg/kg, po after 10 to 14 days. The format is functional.
Series [19] deals with A-431. The series is described as follows: Antitumor activity against human A431 cells xenografted po dosed mouse model measured after 10 to 14 days. In kind it is functional, organism-based.
Series [20] deals with HCT-116. Kind of series: Antitumor activity against human HCT116 cells xenografted po dosed mouse model measured after 10 to 14 days. The format is functional, organism-based.
Series [21] deals with Rattus norvegicus. Kind of series: AUC in rat at 2 mg/kg, iv. To be noted: in vivo. The format is ADME, organism-based, Plasma. Set-up: dose 2 mg/kg, route intravenous.
Series [22] has as its system A-375. Kind of series: Antiproliferative activity against human A375 cells at 100 uM. The format is functional, cell-based.
A short description of series [23]: Clearance in rat at 2 mg/kg, iv. In kind it is ADME, organism-based. Further details: dose 2 mg/kg, route intravenous. Conditions: in vivo.
Series [24] in a line: Half life in rat at 10 mg/kg, po. The format is ADME, organism-based. Further details: dose 10 mg/kg, route oral. To be noted: in vivo.
Series [25] relates to HCT-116. The series is described as follows: Antiproliferative activity against human HCT116 cells at 100 uM. The format is functional, cell-based.
In series [26] the test system is Mus musculus. Kind of series: Oral bioavailability in BALB/c mouse at 10 mg/kg. To be noted: in vivo. The format is ADME, organism-based.
Series [27] can be described thus: Half life in BALB/c mouse at 10 mg/kg, po. The format is ADME, organism-based. Set-up: dose 10 mg/kg, route oral. Conditions: in vivo.
For series [28], the system named is A-431. The series is described as follows: Antitumor activity against human A431 cells xenografted mouse model measured at 100 to 200 mg/kg, po after 10 to 14 days. The format is functional.
In series [29] the test system is Mus musculus. Kind of series: AUC in BALB/c mouse at 10 mg/kg, po. In kind it is ADME, organism-based, Plasma. Set-up: dose 10 mg/kg, route oral. To be noted: in vivo.

Sequence of Vascular endothelial growth factor receptor 2 (P35968 whole entry): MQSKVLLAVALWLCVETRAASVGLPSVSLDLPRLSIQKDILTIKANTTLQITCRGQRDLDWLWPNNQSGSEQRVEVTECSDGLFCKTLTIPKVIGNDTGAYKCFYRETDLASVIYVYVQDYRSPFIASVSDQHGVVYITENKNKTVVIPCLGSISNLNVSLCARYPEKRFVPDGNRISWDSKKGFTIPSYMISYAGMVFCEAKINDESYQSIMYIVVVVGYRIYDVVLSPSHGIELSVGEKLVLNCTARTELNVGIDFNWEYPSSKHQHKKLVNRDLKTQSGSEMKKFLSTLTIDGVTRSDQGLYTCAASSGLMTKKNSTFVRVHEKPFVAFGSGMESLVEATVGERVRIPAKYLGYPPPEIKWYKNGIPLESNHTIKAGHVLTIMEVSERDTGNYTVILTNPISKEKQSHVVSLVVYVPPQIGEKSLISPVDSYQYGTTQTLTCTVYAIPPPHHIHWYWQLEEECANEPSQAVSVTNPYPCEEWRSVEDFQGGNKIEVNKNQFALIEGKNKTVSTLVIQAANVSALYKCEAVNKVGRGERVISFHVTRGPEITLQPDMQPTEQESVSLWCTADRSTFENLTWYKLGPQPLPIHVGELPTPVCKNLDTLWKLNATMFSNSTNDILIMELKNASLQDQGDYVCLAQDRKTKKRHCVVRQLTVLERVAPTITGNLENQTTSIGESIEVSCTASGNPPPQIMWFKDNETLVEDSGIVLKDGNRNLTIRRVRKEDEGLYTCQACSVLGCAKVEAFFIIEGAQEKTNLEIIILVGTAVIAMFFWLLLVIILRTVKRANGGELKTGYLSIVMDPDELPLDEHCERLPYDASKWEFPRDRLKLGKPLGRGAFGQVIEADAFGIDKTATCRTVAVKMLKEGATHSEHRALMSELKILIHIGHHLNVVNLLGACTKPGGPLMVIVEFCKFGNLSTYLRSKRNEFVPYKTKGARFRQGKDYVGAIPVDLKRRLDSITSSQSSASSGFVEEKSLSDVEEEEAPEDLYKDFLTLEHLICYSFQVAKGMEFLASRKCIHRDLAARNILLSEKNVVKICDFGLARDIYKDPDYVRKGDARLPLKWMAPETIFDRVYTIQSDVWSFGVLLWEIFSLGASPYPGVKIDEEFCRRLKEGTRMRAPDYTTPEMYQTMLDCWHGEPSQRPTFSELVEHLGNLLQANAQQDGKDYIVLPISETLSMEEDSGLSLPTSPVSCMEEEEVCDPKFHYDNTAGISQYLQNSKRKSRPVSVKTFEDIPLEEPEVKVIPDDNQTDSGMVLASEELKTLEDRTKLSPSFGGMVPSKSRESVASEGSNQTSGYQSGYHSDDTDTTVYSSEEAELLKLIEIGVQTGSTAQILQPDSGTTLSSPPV
Sequence of Mast/stem cell growth factor receptor Kit (P10721 whole entry): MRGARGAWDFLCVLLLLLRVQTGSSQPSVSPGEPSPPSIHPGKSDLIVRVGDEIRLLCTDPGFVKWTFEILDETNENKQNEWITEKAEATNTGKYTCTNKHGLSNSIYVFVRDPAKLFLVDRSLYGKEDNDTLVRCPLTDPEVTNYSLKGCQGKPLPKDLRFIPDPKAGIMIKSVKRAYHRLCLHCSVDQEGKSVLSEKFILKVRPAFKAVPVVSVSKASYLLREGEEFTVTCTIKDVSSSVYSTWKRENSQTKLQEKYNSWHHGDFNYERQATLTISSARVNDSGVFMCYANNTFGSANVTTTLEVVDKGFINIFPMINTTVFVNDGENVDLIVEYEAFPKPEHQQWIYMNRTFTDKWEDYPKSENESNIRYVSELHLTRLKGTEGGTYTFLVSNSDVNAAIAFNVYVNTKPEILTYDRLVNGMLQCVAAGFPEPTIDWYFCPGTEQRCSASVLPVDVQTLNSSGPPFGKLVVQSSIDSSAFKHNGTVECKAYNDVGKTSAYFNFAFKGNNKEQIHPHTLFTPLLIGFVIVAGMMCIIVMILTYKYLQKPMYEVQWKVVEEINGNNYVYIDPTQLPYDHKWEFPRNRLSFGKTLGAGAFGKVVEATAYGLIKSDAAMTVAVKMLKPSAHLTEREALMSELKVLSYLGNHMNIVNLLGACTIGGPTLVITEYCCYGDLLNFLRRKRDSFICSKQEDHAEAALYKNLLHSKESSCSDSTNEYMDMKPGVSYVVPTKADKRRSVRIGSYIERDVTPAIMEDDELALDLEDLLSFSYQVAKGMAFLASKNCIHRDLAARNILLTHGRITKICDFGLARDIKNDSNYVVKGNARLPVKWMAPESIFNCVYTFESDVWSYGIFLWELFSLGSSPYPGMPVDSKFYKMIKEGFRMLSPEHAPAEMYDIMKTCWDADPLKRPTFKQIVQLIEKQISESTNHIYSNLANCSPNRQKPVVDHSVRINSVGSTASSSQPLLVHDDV
Sequence of Vascular endothelial growth factor receptor 1 (P17948 whole entry): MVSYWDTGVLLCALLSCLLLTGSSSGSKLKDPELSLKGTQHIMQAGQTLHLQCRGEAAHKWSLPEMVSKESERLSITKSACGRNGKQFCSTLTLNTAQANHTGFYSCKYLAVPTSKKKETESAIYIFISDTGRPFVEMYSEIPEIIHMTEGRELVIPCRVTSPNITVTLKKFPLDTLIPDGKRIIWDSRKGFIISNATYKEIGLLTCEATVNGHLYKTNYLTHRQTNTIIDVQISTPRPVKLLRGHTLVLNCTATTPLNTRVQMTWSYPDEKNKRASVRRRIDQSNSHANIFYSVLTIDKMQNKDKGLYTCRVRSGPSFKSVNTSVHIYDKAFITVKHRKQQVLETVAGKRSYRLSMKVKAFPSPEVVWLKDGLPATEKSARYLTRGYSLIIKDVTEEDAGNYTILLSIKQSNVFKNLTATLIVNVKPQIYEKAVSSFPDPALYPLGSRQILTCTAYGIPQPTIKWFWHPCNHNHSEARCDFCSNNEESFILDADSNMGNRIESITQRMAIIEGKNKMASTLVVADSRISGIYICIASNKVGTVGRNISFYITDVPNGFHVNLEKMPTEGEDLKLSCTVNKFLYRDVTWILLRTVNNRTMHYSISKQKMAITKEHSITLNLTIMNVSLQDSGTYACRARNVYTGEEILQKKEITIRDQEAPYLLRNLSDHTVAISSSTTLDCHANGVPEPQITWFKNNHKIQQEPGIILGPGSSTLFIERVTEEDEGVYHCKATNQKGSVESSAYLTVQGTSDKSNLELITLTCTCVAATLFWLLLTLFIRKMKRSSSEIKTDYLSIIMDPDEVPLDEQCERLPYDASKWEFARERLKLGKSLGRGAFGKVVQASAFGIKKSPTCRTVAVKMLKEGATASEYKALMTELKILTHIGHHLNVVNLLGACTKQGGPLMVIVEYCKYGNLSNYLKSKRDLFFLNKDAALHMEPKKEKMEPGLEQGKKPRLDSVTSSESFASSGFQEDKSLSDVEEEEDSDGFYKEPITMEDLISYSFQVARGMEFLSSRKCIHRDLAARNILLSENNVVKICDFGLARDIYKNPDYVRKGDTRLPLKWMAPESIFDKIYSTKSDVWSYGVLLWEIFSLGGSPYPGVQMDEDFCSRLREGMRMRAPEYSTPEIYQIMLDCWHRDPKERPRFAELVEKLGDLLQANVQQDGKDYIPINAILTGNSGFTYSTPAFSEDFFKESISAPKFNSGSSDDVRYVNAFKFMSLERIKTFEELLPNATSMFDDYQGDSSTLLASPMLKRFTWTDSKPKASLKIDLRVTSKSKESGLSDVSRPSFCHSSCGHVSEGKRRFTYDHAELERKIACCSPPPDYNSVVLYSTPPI

In series [1], `CNC(=O)Cc1ccc(Oc2ncnc(N)c2/C=N/OC)cc1` had an IC50 of 19700 nM. Regarding `CO/N=C/c1c(N)ncnc1Oc1ccc(NC(=O)NCCN(C)C)c(Cl)c1`, in series [1], 285 nM corresponded to half-maximal inhibition (IC50). Same read-out and setting: in the case of `CCCNC(=O)Nc1ccc(Oc2ncnc(N)c2/C=N/OC)cc1Cl` it was 28 nM; in that of `CO/N=C/c1c(N)ncnc1Oc1ccc(NC(=O)NCc2ccc(F)cc2F)c(Cl)c1`, 10.3 nM; in that of `CNC(=O)Nc1ccc(Oc2ncnc(N)c2/C=N/OC)cc1Cl`, 25 nM. Same read-out and setting: for `CO/N=C/c1c(N)ncnc1Oc1ccc(NC(=O)Nc2ccccc2Cl)c(Cl)c1` the value was 2.6 nM; for `CO/N=C/c1c(N)ncnc1Oc1ccc(NC(=O)NCCCCN2CCCC2)c(Cl)c1`, 759 nM. As for `CO/N=C/c1c(N)ncnc1Oc1ccc(NC(=O)Nc2ccccc2OC)c(Cl)c1`, the IC50 in series [1] is 2.5 nM.

With `CO/N=C/c1c(N)ncnc1Oc1ccc(NC(=O)Nc2cccc(F)c2)c(Cl)c1`, the IC50 in series [1] was determined as 1.7 nM. `CO/N=C/c1c(N)ncnc1Oc1ccc(NC(=O)NC(C)C)c(Cl)c1` displayed an IC50 in [1] of 73 nM. Against the preceding compound, the IC50 is about 43-fold higher. `CO/N=C/c1c(N)ncnc1Oc1ccc(NC(=O)Nc2ccc(F)cc2F)c(Cl)c1` had an IC50 in series [1] of 3 nM. On the same count and under the same terms, in the case of `CNC(=O)Nc1ccc(Oc2ncnc(N)c2/C=N/OC)c(Br)c1` it was above 100000 nM; in that of `CO/N=C/c1c(N)ncnc1Oc1ccc(NC(=O)Nc2ccccc2)c(Cl)c1`, 3 nM; in that of `CO/N=C/c1c(N)ncnc1Oc1ccc(NC(=O)NC2CC2)c(Cl)c1`, 29 nM. On to `CO/N=C/c1c(N)ncnc1Oc1ccc(NC(=O)Nc2ccccc2C)c(Cl)c1`, for which the IC50 in series [1] came out at 7.9 nM. Against the preceding compound, the IC50 is about 3.7-fold lower. Take `CO/N=C/c1c(N)ncnc1Oc1ccc(NC(=O)Nc2ccncc2)c(Cl)c1`: in [1], half-maximal inhibition (IC50) was put at 11 nM.

For the compound `CO/N=C/c1c(N)ncnc1Oc1ccc(NC(=O)Nc2nc(C)c(C)s2)c(Cl)c1`, the IC50 in series [1] amounted to 2 nM. For the compound `CCNC(=O)Nc1ccc(Oc2ncnc(N)c2/C=N/OC)cc1Cl`, the IC50 in series [2] came out at 4800 nM; in [10], 513 nM; in [11], 4420 nM. Further, the Cmax worked out at 2790 ng/mL in series [3], 1030 ng/mL in series [8], 2990 ng/mL in [15] and 5400 ng/mL in series [16]. The results for the AUC in the series with Mus musculus [4], in the series with Rattus norvegicus [21] and with Mus musculus [29] were 6114 ng·h/mL, 4799 ng·h/mL and 12305 ng·h/mL, respectively. The values for the Activity result in the series on Mus musculus [5], in the series on A-431 [19] and with HCT-116 [20] were “Non-toxic”, “Dose-dependent effect” and “Dose-dependent effect”, respectively. In addition, the half-life was 0.7 h in series [6], 2.8 h in series [7], 10 h in series [24] and 2.1 h in series [27]. For the same compound, the figures for the clearance in [9] and in [23] were 5.6 mL/min/kg and 7.4 mL/min/kg, respectively. Moreover, the Vd in series [12] came to 0.7 L/kg; in [13], 0.4 L/kg. Moreover, the F amounted to 30% in the series with Rattus norvegicus [14] and 16% in the series on Mus musculus [26]. Also, in the series on A-375 [17], the inhibition in vivo at 100 mg/kg is 90%. The “inhibition (INH)” value in the series on HCT-116 [18] and with A-431 [28] was 90% in each case. Also, the result with A-375 [22] and in the series with HCT-116 [25] was inactive. Regarding `CO/N=C/c1c(N)ncnc1Oc1ccc(NC(=O)OC)cc1Cl`, in [1], the IC50 came out at 152 nM. Take `CO/N=C/c1c(N)ncnc1Oc1ccc(NC(=O)NC2CCCCC2)c(Cl)c1`: 6.5 nM corresponded to half-maximal inhibition in [1] (IC50). In turn, `CNC(=O)Nc1ccc(Oc2ncnc(N)c2/C=N/OC)c(F)c1` displayed an IC50 in series [1] of 142 nM. On the same count and under the same terms, in the case of `CO/N=C/c1c(N)ncnc1Oc1ccc(NC(=O)Nc2ccc(F)cc2)c(Cl)c1` it was 2.8 nM. Regarding `CO/N=C/c1c(N)ncnc1Oc1ccc(NC(=O)Nc2cccnc2)c(Cl)c1`, in series [1], the IC50 was 10 nM. Same read-out and setting: for `CCNC(=O)Oc1ccc(Oc2ncnc(N)c2/C=N/OC)cc1` the value was above 100000 nM. The same measure, in the same setting: in the case of `CO/N=C/c1c(N)ncnc1Oc1ccc(NC(=O)NCCO)c(Cl)c1` it was 168 nM; in that of `CCNC(=O)Nc1ccc(Oc2ncnc(N)c2/C=N/OC)c(C)c1`, 180 nM; in that of `CO/N=C/c1c(N)ncnc1Oc1ccc(NC(=O)Nc2ccccn2)c(Cl)c1`, 34 nM. For `CO/N=C/c1c(N)ncnc1Oc1ccc(NC(=O)Nc2ccccc2F)c(Cl)c1`, the IC50 in series [1] stood at 3.3 nM. This IC50 is about 10-fold lower than that of the compound before.

In series [1], `CCNC(=O)Nc1ccc(Oc2ncnc(N)c2/C=N/OC)cc1` came in with an IC50 of 142 nM.

In [1], `CO/N=C/c1c(N)ncnc1Oc1ccc(NC(=O)Nc2nccs2)c(Cl)c1` had an IC50 of 3.4 nM.

`CO/N=C/c1c(N)ncnc1Oc1ccc(NC(=O)Nc2cc(C)on2)c(Cl)c1` showed an IC50 in [1] of 2 nM. In turn, `CO/N=C/c1c(N)ncnc1Oc1ccc(NC(=O)NCCCO)c(Cl)c1` displayed an IC50 in [1] of 400 nM.

The compound `CO/N=C/c1c(N)ncnc1Oc1ccc(NC(C)=O)cc1Cl` displayed an IC50 in series [1] of 2210 nM.
